Values joined by “and” are separate entries in the source; they are usually repeats but may differ in a detail not shown here. Equal values may be shown once. “Also recorded” adds a separate entry of the source. Where a name gives a salt, the structure may show the parent alone.
What was measured:
[1] = for Concentration, 24 h: exposure media after 24 h of exposure with Day 1 solution; for Concentration, 24 h / Concentration, Day 1 (initial pharmaceutical concentration on day 1): n = 3; for Concentration, 48 h: exposure media after 24 h of exposure with Day 2 solution, n = 3 (propranolol n = 2); for Concentration, Day 2 (initial pharmaceutical concentration on day 2): n = 2; for Concentration, Day 1 (initial pharmaceutical concentration on day 1): nominal 1 μg L^−1 (propranolol 10 μg L^−1); for stability of aqueous pharmaceutical concentration: across the exposure period
Experimental: (§1) Individual adult organisms (n = 25), both male and female (>5 mg wet weight) were placed in Pyrex glass beakers. G. pulex were carefully transferred to beakers using blunt forceps to avoid any harm to the organisms before exposure. Each beaker contained 25 organisms in 200 mL of exposure media (AFW and test compound). […] All exposure media contained <0.001% of organic solvent (methanol). A total of 300 organisms were used per compound exposure and were sampled for n = 3 per time-point. […] These were subsequently analysed for background contamination. […] Each animal specimen was rinsed with ultra-pure water and then frozen at −20 °C.
(§2) Water samples collected from exposure experiments were filtered using Whatman filters (0.2 μM) and directly injected onto the LC-MS/MS for analysis. For G. pulex, A mass of 50 mg of lyophilised and ground material was extracted by glass bead pulverisation in 5 mL of acetonitrile and diluted with 100 mL of ammonium acetate buffer (10 mM) for loading onto Waters HLB solid phase extraction (SPE) cartridges (6 cc, 200 mg sorbent).

[2] = test system: Pimephales notatus and I. punctatus; design: method as in Garcia et al., 2012; conditions: depending on tissue; ref Garcia et al., 2012; cited from earlier work
Gammarus fossarum = conditions: ref Sordet et al., 2016; cited from earlier work
in vivo = conditions: both, Gammarus pulex, in vivo, G. pulex; for concentration at 6 h: 6h Mean; for concentration at 24 h: 24h Mean
Experimental: as §1, §2
(§3) Briefly, separations were performed on an Agilent HP1100 LC system configured with a Waters SunFire reversed-phase C18 column (150 mm × 2.1 mm, 2.5 μM particle size). […] Detection was performed using a Waters Quattro triple quadrupole mass spectrometer with electrospray ionisation operated in positive and negative polarity switching mode. Quantification of analytes was performed using 3-point internal standard matrix-matched calibration using the peak area ratio of non-labelled analyte (precursor range: 50–300 ng g^−1, biotransformation product range: 50–150 ng g^−1) to the stable isotope labelled internal standard (SIL-IS) (100 ng g^−1).
(§4) Herein, the authors define BCFtotal as the summation of the BCF of both parent/precursor and biotransformation products (i.e. the total body burden). Whereas, BCFparent will be used to describe the BCF determined for the parent compound alone.

Gammarus pulex [3] = assay: in vivo; conditions: for BCFss: steady-state BCF estimation, 48 h
Experimental: as §1, §2, §3, §4

[4] = test system: Mytilus galloprovincialis; conditions: ref Gomez et al., 2012; cited from earlier work
G. pulex = conditions: ref Miller et al., 2016, cited from earlier work; for SeqBCF, Full Design: sequential BCF; for SeqBCF^a, Full Design: sequential estimation using minitab; for SimBCF, Full Design: simultaneous BCF
Gammarus pulex [5] = assay: Biotransformation products in G. pulex after exposure to propranolol, carbamazepine or diazepam (LC-MS/MS); conditions: for detection of biotransformation product in G. pulex at 96 h: after exposure to the precursor compound, end of depuration; for k2 of biotransformation product: depuration phase
Experimental: as §1, §3
A matrix effect and recovery experiment was performed for these additional analytes before exposures were performed (SI Table S5).

sturgeons = test system: sturgeons; design: method as in Hou et al., 2003; conditions: ref Hou et al., 2003; cited from earlier work
[6] = pH 8.19, Concentration, n=3, exposure 1 μg L^−1 (warfarin, propranolol 10 μg L^−1)
[7] = pH 8.19, Concentration, 48h Mean, n=3, exposure 1 μg L^−1 (warfarin, propranolol 10 μg L^−1)
[8] = pH 8.19, internal concentration at the end of the uptake phase, 48 h, exposure 1 μg L^−1 (propranolol 10 μg L^−1)
[9] = both, Gammarus pulex, in vivo, pH 8.19
[10] = k1 re-calculated over time intervals of the uptake phase
[11] = sequential, Levenberg-Marquardt algorithm, exposure 1 μg L^−1 (warfarin, propranolol 10 μg L^−1)
[12] = sequential, linear regression on elimination data, exposure 1 μg L^−1 (warfarin, propranolol 10 μg L^−1)
[13] = simultaneous parametrisation, exposure 1 μg L^−1 (warfarin, propranolol 10 μg L^−1)

## CC(C)NCC(O)COc1cccc2ccccc12 (stereo not drawn) [Propranolol, Propranolol hydrochloride]
[1]
  Concentration, 24 h: 8.92 ng/mL
  Concentration, 48 h: 6.41 μg L^−1 and 6.41 ^a μg L^−1
[1]; exposure media, after the first 24 h
  decline of aqueous concentration: 29%
[1]; exposure media
  Concentration, Day 2 (initial pharmaceutical concentration on day 2): 8.98 ng/mL
  Concentration, Day 1 (initial pharmaceutical concentration on day 1): 9.22 ng/mL

## NC(=O)N1c2ccccc2C=Cc2ccccc21 [Carbamazepine, carbamazepine]
[2]
  BCF in two species of fish (Pimephales notatus and I. punctatus): < 7 L/kg
Gammarus fossarum
  BCF in Gammarus fossarum: 5 L/kg
[1]
  stability of aqueous pharmaceutical concentration: remained stable
  Concentration, 24 h: 1.01 ng/mL
  Concentration, 48 h: 1.07 µg/L
[1]; exposure media
  Concentration, Day 2 (initial pharmaceutical concentration on day 2): 1.08 ng/mL
  Concentration, Day 1 (initial pharmaceutical concentration on day 1): 1.12 ng/mL
In vivo; [6]
  concentration at 6 h: 8 ng/g
  concentration at 24 h: 11 ng/g
In vivo; [7]
  concentration at 48 h: 14 ng/g
In vivo; [8]
  concentration at 48 h: ≤ 51 ng/g
Gammarus pulex [3]; [9]
  BCFparent from the average of k1 over the 48 h time interval: 26 L/kg

## COCCc1ccc(OCC(O)CNC(C)C)cc1 (racemic) [Metoprolol, (±)-metoprolol (+)-tartrate salt]
[1]
  stability of aqueous pharmaceutical concentration: remained stable
  Concentration, 24 h: 0.72 ng/mL
  Concentration, 48 h: 0.87 µg/L
[1]; exposure media
  Concentration, Day 2 (initial pharmaceutical concentration on day 2): 0.86 ng/mL
  Concentration, Day 1 (initial pharmaceutical concentration on day 1): 0.77 ng/mL
In vivo; [8]
  concentration at 48 h: ≤ 51 ng/g
Gammarus pulex [3]; [9]
  BCFparent, Sequential a: 39 L/kg
  BCFparent, Sequential b: 37 L/kg
  BCFparent, Simultaneous: 17 L/kg
  k1 (uptake rate constant), Simultaneous: 0.4413
  k1, Sequential a: 0.2788
  k1, Sequential b: 0.2855
  k2 (depuration rate constant), Simultaneous: 0.0259
  k2, Sequential a: 0.0071
  k2, Sequential b: 0.0078
Gammarus pulex [3]
  BCFss: 9

## CN1C(=O)CN=C(c2ccccc2)c2cc(Cl)ccc21 [Diazepam, diazepam]
[1]
  Concentration, 24 h: 0.86 ng/mL
  Concentration, 48 h: 0.89 µg/L
[1]; exposure media
  Concentration, Day 2 (initial pharmaceutical concentration on day 2): 1.04 ng/mL
  Concentration, Day 1 (initial pharmaceutical concentration on day 1): 1.02 ng/mL
In vivo; [6]
  concentration at 6 h: 31 ng/g
  concentration at 24 h: 37 ng/g
Gammarus pulex [3]; [10]
  BCFparent from the average of k1 over the 48 h time interval: 48 L/kg
Gammarus pulex [3]; [11]
  BCFparent, Sequential a: 58 L/kg
  k1, Sequential a: 2.6469
  k2, Sequential a: 0.046
Gammarus pulex [3]; [12]
  BCFparent, Sequential b: 53 L/kg
  k1, Sequential b: 3.0917
  k2, Sequential b: 0.0582
Gammarus pulex [3]; [13]
  BCFparent, Simultaneous: 41 L/kg
  k2 (depuration rate constant), Simultaneous: 0.2349
Gammarus pulex [3]
  BCFss: 45
[4]
  BCF in marine mussel Mytilus galloprovincialis: 51 L/kg

## CN(C)CCCN1c2ccccc2CCc2ccccc21 [Imipramine]
G. pulex
  SeqBCF, Full Design: 4533
  SeqBCF^a, Full Design: 3811
  SimBCF, Full Design: 212

## NC(=O)N1c2ccccc2C2OC2c2ccccc21 (stereo not drawn) [carbamazepine-10,11-epoxide]
Gammarus pulex [5]
  detection of biotransformation product in G. pulex at 96 h: not detected
Gammarus pulex [5]; carbamazepine exposure, 24 h and 48 h
  detection of biotransformation product in G. pulex: detection
Gammarus pulex [5]; carbamazepine exposure, signals below signal to noise ratio of 10:1
  quantifiability of biotransformation product in G. pulex: not quantifiable

## COc1cc(Cc2cnc(N)nc2N)cc(OC)c1OC [Trimethoprim]
[1]
  Concentration, 24 h: 1.01 ng/mL
  Concentration, 48 h: 0.97 µg/L
[1]; exposure media
  Concentration, Day 2 (initial pharmaceutical concentration on day 2): 0.99 ng/mL
  Concentration, Day 1 (initial pharmaceutical concentration on day 1): 1.09 ng/mL

## CC(C)(C)NCC(O)c1cc(O)cc(O)c1 (stereo not drawn) [Terbutaline]
G. pulex
  SeqBCF, Full Design: 19
  SeqBCF^a, Full Design: 22
  SimBCF, Full Design: 12

## O=C1Nc2ccc(Cl)cc2C(c2ccccc2)=NC1O (stereo not drawn) [oxazepam]
Gammarus fossarum
  BCF in Gammarus fossarum: 22 L/kg
Gammarus pulex [5]; G. pulex, diazepam exposure
  reduction of mean internal concentration over the 48 h depuration period: 21 ng g^−1 dw
  k2 of biotransformation product: 0.009 day⁻¹

## COc1ccc(CC(C)NCC(O)c2ccc(O)c(NC=O)c2)cc1 (stereo not drawn) [Formoterol]
G. pulex
  SeqBCF, Full Design: 33
  SeqBCF^a, Full Design: 18
  SimBCF, Full Design: 14

## CN1C(=O)C(O)N=C(c2ccccc2)c2cc(Cl)ccc21 (stereo not drawn) [Temazepam, temazepam]
[1]
  stability of aqueous pharmaceutical concentration: remained stable
  Concentration, 24 h: 0.85 ng/mL
  Concentration, 48 h: 1.03 µg/L
[1]; exposure media
  Concentration, Day 2 (initial pharmaceutical concentration on day 2): 1.17 ng/mL
  Concentration, Day 1 (initial pharmaceutical concentration on day 1): 0.96 ng/mL
Gammarus pulex [5]; G. pulex, after exposure to the precursor compound (propranolol 10 μg L^−1, diazepam 1 μg L^−1)
  mean concentration of biotransformation product at 48 h (end of the uptake phase): 6 ± 3 ng g^−1 dw
Gammarus pulex [5]; G. pulex, diazepam exposure
  k2 of biotransformation product: 0.016 day⁻¹
Gammarus pulex [5]
  detection of biotransformation product in G. pulex at 96 h: not detectable
In vivo; [6]
  concentration at 6 h: 20 ng/g
  concentration at 24 h: 32 ng/g
In vivo; [7]
  concentration at 48 h: 38 ng/g
In vivo; [8]
  concentration at 48 h: ≤ 51 ng/g
Gammarus pulex [3]; [10]
  BCFparent from the average of k1 over the 48 h time interval: 40 L/kg
Gammarus pulex [3]; [11]
  BCFparent, Sequential a: 41 L/kg
  k1, Sequential a: 2.8514
  k2, Sequential a: 0.0702
Gammarus pulex [3]; [12]
  BCFparent, Sequential b: 41 L/kg
  k1, Sequential b: 2.751
  k2, Sequential b: 0.0669
Gammarus pulex [3]; [13]
  BCFparent, Simultaneous: 37 L/kg
  k1 (uptake rate constant), Simultaneous: 4.3326
  k2 (depuration rate constant), Simultaneous: 0.1186
Gammarus pulex [3]
  BCFss: 38

## O=C1CN=C(c2ccccc2)c2cc(Cl)ccc2N1 [nordiazepam]
Gammarus pulex [5]; G. pulex, diazepam exposure
  concentration of biotransformation product (higher than the parent compound): 94 ng g^−1 dw
  k2 of biotransformation product: 0.0194 day⁻¹
Gammarus pulex [5]; G. pulex, diazepam exposure, time not stated
  mean concentration of biotransformation product reached: 64 ± 27 ng g^−1 dw

## Cc1cc(C)nc(NS(=O)(=O)c2ccc(N)cc2)n1 [Sulfamethazine, sulfamethazine]
[1]
  stability of aqueous pharmaceutical concentration: remained stable
  Concentration, 24 h: 0.99 ng/mL
  Concentration, 48 h: 0.71 µg/L
[1]; exposure media
  Concentration, Day 2 (initial pharmaceutical concentration on day 2): 0.89 ng/mL
  Concentration, Day 1 (initial pharmaceutical concentration on day 1): 1.06 ng/mL
Gammarus pulex [3]; exposure 1 μg L^−1
  detection of parent compound in G. pulex samples: not detected in any sample; also recorded: no peaks were detected
sturgeons
  BCF in sturgeons: 1 L/kg

## O=C(O)Cc1ccccc1Nc1c(Cl)cccc1Cl [Diclofenac]
G. pulex
  SeqBCF, Full Design: 21
  SeqBCF^a, Full Design: 27
  SimBCF, Full Design: 14

From PMC5476196, “Uptake, biotransformation and elimination of selected pharmaceuticals in a freshwater invertebrate measured using liquid chromatography tandem mass spectrometry” (Chemosphere, 2017)
